This data set can be described thus: DSC miscibility screening of polymer-surfactant-ganaxolone combinations. Type of data set: physicochemical. Conditions: added to all formulations.

As for `CCCC(CCC)C(=O)O` [Valproic acid], the “Effect of addition on crystallinity of the ganaxolone” value is “increased crystallinity”.

These data come from patent publication US20250032510A1, “AMORPHOUS SOLID DISPERSION GANAXOLONE FORMULATION” (MARINUS PHARMACEUTICALS, INC., priority 2021, published 2025).
